Our source for the Kd values is paper PMC7756784 (Chemistry (Weinheim an Der Bergstrasse, Germany), 2020).

This experiment addresses human galectin-1 (Gal-1) (Homo sapiens, UniProt P09382). The experiment in a line: ITC, single-site model. Particulars: 50 mM sodium phosphate, 150 mM NaCl, pH 7.4, 1 mM TCEP. It counts as binding. (In ITC the heat of successive injections is recorded.)

Structures are written as SMILES.

Sequence of human galectin-1 (Gal-1) (P09382 2-135): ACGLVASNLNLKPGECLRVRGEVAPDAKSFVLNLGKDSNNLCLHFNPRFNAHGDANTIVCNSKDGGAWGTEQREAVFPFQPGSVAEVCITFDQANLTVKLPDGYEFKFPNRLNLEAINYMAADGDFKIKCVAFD

The Kd is the free concentration of one partner at which half of the binding sites on the other are occupied at equilibrium, for simple one-to-one binding. `CC(=O)N[C@H]1C(O)O[C@H](CO)[C@@H](O[C@@H]2O[C@H](CO)[C@H](O)[C@H](O)[C@H]2O[C@@H]2O[C@@H](C)[C@@H](O)[C@@H](O)[C@@H]2O)[C@@H]1O` (some centres unmarked) [compound 3, H type‐II]: the Kd was determined as 319 µM. The molecule `CC(=O)N[C@H]1C(O)O[C@H](CO)[C@@H](O[C@@H]2O[C@H](CO)[C@H](O)[C@H](O[C@H]3O[C@H](CO)[C@H](O)[C@H](O)[C@H]3O)[C@H]2O[C@@H]2O[C@@H](C)[C@@H](O)[C@@H](O)[C@@H]2O)[C@@H]1O` (some centres unmarked) [compound 4, B type‐II] gave a Kd of 379 µM.
